Test results published in PubChem BioAssay AID248 (DTP/NCI, 2004).
Toxic doses and inconclusive results are not listed.

Tested on: L1210 leukemia ip in BDF1 mice, survival T/C
Assay: NCI In Vivo Anticancer Drug Screen. Data for tumor model L1210 Leukemia (intraperitoneal) in B6D2F1 (BDF1) mice
Settings: endpoint: mean survival time, higher = longer survival
In short: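 Each compound was tested against a transplantable tumor grown in mice. The endpoint was survival, with treated animals benchmarked against vehicle controls as a simple ratio.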

## CSc1cc(C(=O)Nc2ccc(C3=NCCN3)cc2)ccc1C(=O)Nc1ccc(C2=NCCN2)cc1
dose: 0.5 mg/kg/injection, schedule: Q01DX Z (ip), vehicle: carboxymethylcellulose (CMC)
  T/C: 109 % of control
dose: 0.62 mg/kg/injection, schedule: Q01DX015 (ip), vehicle: methylcellulose (MC)
  T/C: 112 % of control
dose: 1.25 mg/kg/injection, schedule: Q01DX015 (ip), vehicle: methylcellulose (MC)
  T/C: 108 % of control
dose: 3.75 mg/kg/injection, schedule: Q01DX Z (ip), vehicle: carboxymethylcellulose (CMC)
  T/C: 203 % of control
dose: 7.5 mg/kg/injection, schedule: Q01DX Z (ip), vehicle: carboxymethylcellulose (CMC)
  T/C: 231 % of control
dose: 10.0 mg/kg/injection, schedule: Q01DX015 (ip), vehicle: methylcellulose (MC)
  T/C: 231 % of control
dose: 10.0 mg/kg/injection, schedule: Q01DX Z (ip), vehicle: carboxymethylcellulose (CMC)
  T/C: 236 % of control
dose: 15.0 mg/kg/injection, schedule: Q01DX Z (ip), vehicle: carboxymethylcellulose (CMC)
  T/C: 280 % of control
dose: 20.0 mg/kg/injection, schedule: Q01DX015 (ip), vehicle: methylcellulose (MC)
  T/C: 286 % of control
dose: 20.0 mg/kg/injection, schedule: Q01DX Z (ip), vehicle: carboxymethylcellulose (CMC)
  T/C: 287 % of control
dose: 30.0 mg/kg/injection, schedule: Q01DX Z (ip), vehicle: carboxymethylcellulose (CMC)
  T/C: 178 % of control
dose: 40.0 mg/kg/injection, schedule: Q01DX015 (ip), vehicle: methylcellulose (MC)
  T/C: 221 % of control
dose: 40.0 mg/kg/injection, schedule: Q01DX Z (ip), vehicle: carboxymethylcellulose (CMC)
  T/C: 168 % of control
dose: 50.0 mg/kg/injection, schedule: Q01DX Z (oral), vehicle: carboxymethylcellulose (CMC)
  T/C: 102 % of control
dose: 100.0 mg/kg/injection, schedule: Q01DX Z (oral), vehicle: carboxymethylcellulose (CMC)
  T/C: 100 % of control
dose: 150.0 mg/kg/injection, schedule: Q01DX001 (ip), vehicle: methylcellulose (MC)
  T/C: 167 % of control
dose: 200.0 mg/kg/injection, schedule: Q01DX Z (oral), vehicle: carboxymethylcellulose (CMC)
  T/C: 104 % of control
dose: 400.0 mg/kg/injection, schedule: Q01DX Z (oral), vehicle: carboxymethylcellulose (CMC)
  T/C: 95 % of control
